From patent US9908896B2, “P38 and JNK MAPK inhibitors for the treatment and prophylaxis of degenerative diseases of the nervous system” (ALLINKY BIOPHARMA, priority 2014, dated 2018) come the findings set out here.

Assay [1] relates to TNF-α secretion by a human monocytic cell line, THP-1. Put plainly: Inhibition of TNF-α secretion by LPS-stimulated THP-1 cells (ELISA). The note with it: LPS-stimulated THP-1, TNF-α; for inhibition at 1 µM: 1 μM compound, read-out: % of inhibition at 1 μM, THP1; for inhibition at 10 µM: 10 μM compound, read-out: % of inhibition at 10 μM, THP1. The format is cell-based. The method, then:
Thp1-Inhibition of TNF-α Secretion by a Human Monocytic Cell Line, THP-1
THP-1 cells, growing in log phase, were collected by centrifugation and resuspended in RPMI 1640 (Sigma Aldrich), to a final cell concentration of 2×10^6 cells/ml. Cells were plated into 24-well plates (BD Biosciences). Dilutions of compounds in dimethyl sulfoxide (DMSO) were added to the culture to a final concentration M. The final DMSO concentration was 0.5%. The cells […] suspensions were preincubated with compounds for 1 h at 37° C. in a 5% CO2 humidified atmosphere before the addition of LPS (Sigma Aldrich, L2654) to a g/ml. After that, cells were incubated for 3 h followed final concentration of […] by centrifugation to pellet cells. Cell supernatants were stored at 4° C. until human analysis for TNF-α content. TNF-α levels were determined by ELISA (TNF Biotrak, GE Healthcare) following the manufacturer's directions. The percentage inhibition was calculated for each compound concentration tested, and the IC50 was calculated for each compound.

In assay [2] the target is T1, recombinant activated p38alpha (Homo sapiens, UniProt Q16539).
T1 construct: purchased ProQinase
Put plainly: in vitro kinase assay p38 (ADP-Glo). The format is biochemical. To be noted: 100 μM ATP; for inhibition at 1 µM: 1 μM compound; for inhibition at 10 µM: 10 μM compound. The procedure:
(§1) Purified recombinant activated p38alpha (10 nM)(ProQinase) was preincubated 10 minutes at 30° C. with the compound of interest at concentrations between 1 and 100 μM in duplicate in a final volume of 30 μl of kinase buffer (Hepes 60 mM pH 7.5, MgCl2 3 mM, MnCl2 3 mM, sodium orthovanadate 3 μM, DTT 1.2 mM). After preincubation, peptide substrate (SignalChem #P03-58) and ATP were added to a final concentration of 10 μM and 100 μM respectively, and then incubated 40 minutes at 30° C. for the kinase reaction. Phosphorylation was analysed with ADP-Glo™ (Promega #V9101) and emitted luminescence was measured with BMG Fluostar microplate reader.
A general note: ADP-Glo first removes unused ATP, then detects ADP through luciferase.

The subject of assay [3] is recombinant activated JNK. Put plainly: in vitro kinase assay JNK (ADP-Glo). The format is biochemical. The note with it: 100 μM ATP; for % of inhibition at 1 μM, JNK: 1 μM compound; for % of inhibition at 10 μM, JNK: 10 μM compound. The procedure: as §1, with “JNK” for “p38alpha”, “nM) (ProQinase)” for “nM)(ProQinase)”, “analyzed” for “analysed”

T1 sequence (Q16539 whole entry): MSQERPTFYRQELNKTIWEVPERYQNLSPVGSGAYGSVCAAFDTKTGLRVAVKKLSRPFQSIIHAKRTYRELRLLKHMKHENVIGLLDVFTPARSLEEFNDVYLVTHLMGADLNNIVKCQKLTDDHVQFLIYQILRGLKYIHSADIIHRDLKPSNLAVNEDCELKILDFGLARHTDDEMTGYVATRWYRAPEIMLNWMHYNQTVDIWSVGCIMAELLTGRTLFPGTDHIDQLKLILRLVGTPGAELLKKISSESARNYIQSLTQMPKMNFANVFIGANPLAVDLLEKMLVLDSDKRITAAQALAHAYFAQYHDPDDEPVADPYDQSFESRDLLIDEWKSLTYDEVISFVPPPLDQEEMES

Broadly, the inhibition is the relative decrease from the control value, in per cent. Take `CCCOc1ccc(Nc2nc3nonc3nc2N2CCN(Cc3ccc(Cl)cc3)CC2)cc1` [Comp 9]: in assay [1], the inhibition at 1 µM turned out to be 27% and the inhibition at 10 µM amounted to 39%. Also, in assay [2], the inhibition at 1 µM worked out at 23% and the inhibition at 10 µM turned out to be 68%. Also, in assay [3], the “% of inhibition at 1 μM, JNK” value was determined as 26% and the “% of inhibition at 10 μM, JNK” value was 51%.

Turning to `Clc1ccc(OC2CCN(c3nc4nonc4nc3Nc3ccc4c(c3)CCO4)CC2)cc1` [Comp 11], in assay [1], the inhibition at 1 µM worked out at 30% and the inhibition at 10 µM is 50%. In addition, in assay [2], the inhibition at 1 µM worked out at 21% and the inhibition at 10 µM was 105%. In addition, in assay [3], the “% of inhibition at 1 μM, JNK” value stood at 24% and the “% of inhibition at 10 μM, JNK” value is reported as 74%.

As to `CCOc1cccc(Nc2nc3nonc3nc2N2CCC(Oc3ccc(Cl)cc3)CC2)c1` [Comp 4], in assay [1], the inhibition at 1 µM is 19% and the inhibition at 10 µM is 41%. In assay [2], the inhibition at 1 µM turned out to be 25% and the inhibition at 10 µM came out at 68%. In assay [3], the “% of inhibition at 1 μM, JNK” value is 31% and the “% of inhibition at 10 μM, JNK” value came out at 74%.

`CCCOc1cccc(Nc2nc3nonc3nc2N2CCC(Oc3ccc(Cl)cc3)CC2)c1` [Comp 3]: in assay [1], the inhibition at 1 µM was found to be 37% and the inhibition at 10 µM was found to be 58%. Further, in assay [2], the inhibition at 1 µM was found to be 23% and the inhibition at 10 µM stood at 100%. In assay [3], the “% of inhibition at 1 μM, JNK” value is reported as 31% and the “% of inhibition at 10 μM, JNK” value was determined as 96%.

Take `Clc1ccc(OC2CCN(c3nc4nonc4nc3Nc3ccc4occc4c3)CC2)cc1` [Comp 12]: in assay [1], the inhibition at 1 µM turned out to be 45% and the inhibition at 10 µM worked out at 51%. Besides, in assay [2], the inhibition at 1 µM is 15% and the inhibition at 10 µM came to 95%. Besides, in assay [3], the “% of inhibition at 1 μM, JNK” value is reported as 24% and the “% of inhibition at 10 μM, JNK” value is recorded as 90%.

Consider `CCOc1ccc(Nc2nc3nonc3nc2N2CCC(Oc3ccc(Cl)cc3)CC2)cc1` [Comp 2], for which, in assay [1], the inhibition at 1 µM turned out to be 42% and the inhibition at 10 µM amounted to 69%. Moreover, in assay [2], the inhibition at 1 µM turned out to be 41% and the inhibition at 10 µM is 87%. Besides, in assay [3], the “% of inhibition at 1 μM, JNK” value is on record as 36% and the “% of inhibition at 10 μM, JNK” value was determined as 91%.

Consider `CCCOc1ccc(Nc2nc3nonc3nc2N2CCC(Sc3ccc(C)cc3)CC2)cc1` [Comp 5], for which, in assay [1], the inhibition at 1 µM is 44% and the inhibition at 10 µM amounted to 65%. Moreover, in assay [2], the inhibition at 1 µM was determined as 41% and the inhibition at 10 µM was 100%. Moreover, in assay [3], the “% of inhibition at 1 μM, JNK” value is reported as 37% and the “% of inhibition at 10 μM, JNK” value is given as 97%.

Consider `CCOc1cccc(Nc2nc3nonc3nc2N2CCC(Sc3ccc(C)cc3)CC2)c1` [Comp 8], for which, in assay [1], the inhibition at 1 µM worked out at 17% and the inhibition at 10 µM came to 37%. Moreover, in assay [2], the inhibition at 1 µM came out at 16% and the inhibition at 10 µM was 64%. Besides, in assay [3], the “% of inhibition at 1 μM, JNK” value was determined as 32% and the “% of inhibition at 10 μM, JNK” value was determined as 55%.

`CCOc1ccc(Nc2nc3nonc3nc2N2CCN(Cc3ccc(Cl)cc3)CC2)cc1` [Comp 10]: in assay [1], the inhibition at 1 µM stood at 19% and the inhibition at 10 µM was found to be 31%. Also, in assay [2], the inhibition at 1 µM turned out to be 25% and the inhibition at 10 µM came out at 52%. For the same compound, in assay [3], the “% of inhibition at 1 μM, JNK” value is recorded as 30% and the “% of inhibition at 10 μM, JNK” value stood at 50%.

Turning to `CCCOc1cccc(Nc2nc3nonc3nc2N2CCC(Sc3ccc(C)cc3)CC2)c1` [Comp 7], in assay [1], the inhibition at 1 µM was 21% and the inhibition at 10 µM amounted to 33%. In assay [2], the inhibition at 1 µM came to 19% and the inhibition at 10 µM was 87%. In assay [3], the “% of inhibition at 1 μM, JNK” value amounted to 34% and the “% of inhibition at 10 μM, JNK” value worked out at 101%.

Consider `CCOc1ccc(Nc2nc3nonc3nc2N2CCC(Sc3ccc(C)cc3)CC2)cc1` [Comp 6], for which, in assay [1], the inhibition at 1 µM was 28% and the inhibition at 10 µM turned out to be 39%. Further, in assay [2], the inhibition at 1 µM was 32% and the inhibition at 10 µM is 95%. Moreover, in assay [3], the “% of inhibition at 1 μM, JNK” value turned out to be 35% and the “% of inhibition at 10 μM, JNK” value was determined as 91%.
